Where two headings read alike, the source gives them in different places.
Experiments:
Sarcoma 180 cells [1] = test: Antitumor action, Sarcoma 180 intraperitoneal in ICR mice, life-span and survivors on 40th day (Test Example 1); assay type: in vivo; conditions: 0.33 mg/mouse i.p. three times; for Life-span prolongation ratio (T/C, %): only related to mice found dead
Procedure: Antitumor action of the compounds in Working Examples
(§1) ICR mice (a group consisting of five mice) were inoculated intraperitoneally with 1×10^5 Sarcoma 180 cells per mouse, and then given intraperitoneally 0.33 mg/mouse of a compound dissolved in physiological saline, three times, i.e. 1 hour, 1 day and 2 days after inoculation. Reference compound IV, Va or Vb was given to mice under the same conditions. Shown in Table 1 are the life-span prolongation ratio against the untreated control group and the number of survived mice on the 40th day after the initiation of the test.

[2] = test system: Platelet aggregation caused by PAF; test: Inhibition of PAF-induced platelet aggregation in rabbit PRP (Test Example 5); assay type: cell-based; conditions: Oryctolagus cuniculus, PAF 1×10^-8 M, read-out: inhibition ratio (%) of PAF-induced platelet aggregation; for inhibition at 30 µM: 3 × 10^-5 M; for inhibition at 3 µM: 3 × 10^-6 M; for inhibition at 0.3 µM: 3 × 10^-7 M
Procedure: Blood was collected directly from a male rabbit, using a syringe containing 3.15% of citric acid (at a ratio of 1 part to 9 parts of blood) as an anticoagulant, and centrifuged at 800 rpm for 10 minutes at room temperature to obtain platelet rich plasma (PRP). The remaining blood was centrifuged further at 3000 rpm for 10 minutes to obtain platelet poor plasma (PPP) as the supernatant. By dilution of PRP with PPP, the platelet count was adjusted to about 500,000 cells/μl. After 250 μl of the resulting PRP was stirred at 37° C. for 2 minutes, a certain amount of the test compound was added, and the mixture was stirred for further 2 minutes, and then 1×10^-8 M of PAF was added. Platelet aggregation was measured by using a platelet aggregometer (manufactured by Rika Denki Co. in Japan). The aggregation-inhibiting activity of a test compound was determined from the inhibition ratio against maximal transmittance (maximal aggregation ratio) caused by PAF in the control PRP.

Sarcoma 180 cells [3] = test: Antitumor action, Sarcoma 180 subcutaneous in ICR mice, intravenous dosing, tumor proliferation inhibition (Test Example 2); assay type: in vivo; conditions: tumor weight after 21 days
Procedure: (§2) Antitumor action of the compound of Working Example 8
ICR mice (a group consisting of 5 mice) were inoculated subcutaneously with 1×10^6 Sarcoma 180 cells per mouse, and given intravenously 0.03 mg/mouse or 0.3 mg/mouse of the compound of Working Example 8 dissolved in physiological saline 9 times in total, i.e. 8, 9, 10, 13, 14, 15, 16, 17, and 20 days after inoculation. The Reference compound (IV), 0.3 mg/mouse, was given under the same conditions. After 21 days, the tumor tissue was extirpated and the tumor weight was weighed. Shown in Table 2 is tumor proliferation inhibition ratio as compared with the untreated control group.

[4] = test system: mouse mammary carcinoma cells MM46; test: Antitumor action, MM46 intraperitoneal in C3H mice, life-span and survivors on 40th day (Test Example 3); assay type: in vivo; conditions: 0.25 mg/mouse once a day for 4 days
Procedure: as §2
C3H mice (a group consisting of 5 mice) were inoculated intraperitoneally with 1×10^4 mouse mammary carcinoma cells MM46 per mouse, and given 0.25 mg/mouse of the compound of Working Example 8 dissolved in physiological saline once a day for 4 consecutive days starting from the second day after the inoculation. The Reference compound (IV) was given under the same conditions. Shown in Table 3 are the life-span prolongation ratio against the untreated control group and the number of survived mice on the 40th day after initiation of the test.

[5] = test system: mouse mammary carcinoma cells MM46; test: Antitumor action, MM46 intraperitoneal in C3H mice, life-span and survivors on 60th day (Test Example 8); assay type: in vivo; conditions: for Life-span prolongation ratio (T/C, %): mice found dead only
Source text: (§3) Antitumor action of the compounds of Working Examples
C3H mice (a group consisting of 5 mice) were inoculated intraperitoneally with 1×10^4 mouse mammary carcinoma cells MM46 per mouse, […] saline once a day for 4 consecutive days starting from the second day after inoculation. Shown in Table 8 are the life-span prolongation ratio against the untreated control group and the number of survived mice on the 60th day after initiation of the test.

Sarcoma 180 cells [6] = test: Antitumor action, Sarcoma 180 subcutaneous in ICR mice, oral dosing (Test Example 9); assay type: in vivo; conditions: 0.3 mg/mouse orally eight times, after 20 days; for Inhibition ratio (%): against untreated control
Procedure: Antitumor action of the compounds of Working Examples 8 and 24
ICR mice (a group consisting of 5 mice) were inoculated subcutaneously at the dorsolateral area with […] 1×10^6 Sarcoma 180 cells per mouse, and given orally 0.3 mg/mouse of the compound of Example 8 or the compound of Example 24 eight times in total, i.e. 8th, 9th, 10th, 13th, 14th, 15th, 16th, and 17th day after inoculation. After 20 days the tumor tissue was extirpated and the tumor weight was weighed. Shown in Table 9 is tumor proliferation inhibition ratio against the untreated control.

Sarcoma 180 cells [7] = test: Antitumor action, Sarcoma 180 intraperitoneal in ICR mice, life-span and survivors on 60th day (Test Example 6); assay type: in vivo; conditions: Sarcoma-180, ip, 1440 h; for response vs control in vivo at 0.33 mg: read-out: Life-span prolongation ratio (T/C)
Procedure: as §3
as §1, with “inoculation.” for “inoculation. Reference compound IV, Va or Vb was given to mice under the same conditions.”, “Table 6” for “Table 1”, “the 60th” for “the 40th”

Sarcoma 180 cells [8] = test: Antitumor action, Sarcoma 180 subcutaneous in ICR mice, intravenous dosing, tumor proliferation inhibition (Test Example 7); assay type: in vivo; conditions: 0.3 mg/mouse i.v. 9 times; tumor weight after 21 days
Procedure: as §3
ICR mice (a group consisting of 5 mice) were inoculated subcutaneously with 1×10^5 Sarcoma 180 cells per mouse, and given intravenously 0.3 mg/mouse of a compound of a Working Example dissolved in physiological saline 9 times in total, i.e. 8, 9, 10, 13, 14, 15, 16, 17, and 20 days after inoculation. After 21 days, the tumor tissue was extirpated and the tumor weight was weighed. Shown in Table 7 is tumor proliferation inhibition ratio as compared with the untreated control group.

macrophages = conditions: even at about 1000 times concentration of that of PAF; cited from earlier work
[9] = 0.125 mg/mouse once a day for 4 days
[10] = 0.25 mg/mouse once a day for 4 days
[11] = 0.33 mg/mouse i.p. three times, 60th day, read-out: No. of survivors/No. of mice tested (converted)
[12] = 0.33 mg/mouse i.p. three times, survivors on day 60 not included

Compound | No. of survivors/No. of mice tested (Sarcoma 180 cells [1]) | Life-span prolongation ratio (T/C, %) (Sarcoma 180 cells [1]) [%] | inhibition at 30 µM [2] [%] | inhibition at 3 µM [2] [%] | responders at 0.33 mg (Sarcoma 180 cells [7]; [11]) [%] | response vs control in vivo at 0.33 mg (Sarcoma 180 cells [7]; [12]) [%] | further results
CCCCCCCCCCCCCCCCCCOCC(COCC[N+](C)(C)C)OC (stereo not shown) [Compound Va, reference compound] | 1/5 | 241 | 27 | 0 | – | – | inhibition at 0.3 µM [2]: 0%
CCCCCCCCCCCCCCCCCCOCC(COCCCC[N+](C)(C)C)OC (stereo not shown) [Compound Vb, reference compound] | 0/5 | 291 | 97 | 5 | – | – | inhibition at 0.3 µM [2]: 0%
CCCCCCCCCCCCCCCCCCOCC(COCCOCC[N+](C)(C)C)OC (stereo not shown) [Example 8, 2-[2-[2-Methoxy-3-(octadecyloxy)propyloxy]ethoxy]ethyltrimethylammonium chloride] | 5/5 | – | 100 | 38 | – | – | Inhibition ratio (1-T/C) (%) (Sarcoma 180 cells [3]; 0.03 mg/mouse i.v. 9 times): 65%; Inhibition ratio (1-T/C) (%) (Sarcoma 180 cells [3]; 0.3 mg/mouse i.v. 9 times): 65%; No. of survivors/No. of mice tested [4]: 5/5; inhibition at 0.3 µM [2]: 18%; No. of survivors/No. of mice tested [5, 9]: 2/5; Life-span prolongation ratio (T/C, %) [5, 9]: 144%; No. of survivors/No. of mice tested [5, 10]: 3/5; Life-span prolongation ratio (T/C, %) [5, 10]: 315%; Weight of tumor (Sarcoma 180 cells [6]): 0.35 ± 0.04 g; Inhibition ratio (%) (Sarcoma 180 cells [6]): 75%
CCCCCCCCCCCCCCCCCCOCC(COCCOCCOCC[N+](C)(C)C)OC (stereo not shown) [Example 9, 2-[2-[2-[2-Methoxy-3-(octadecyloxy)propyloxy]ethoxy]ethoxy]ethyltrimethylammonium chloride] | 1/5 | 247 | 100 | 66 | – | – | inhibition at 0.3 µM [2]: 3%
CCCCCCCCCCCCCCCCCCOCC(COCCOCC[N+](C)(C)C)OC(=O)CC(C)=O.[Cl-] (stereo not shown) [Example 12, 2-[2-[2-(Acetoacetyloxy)-3-(octadecyloxy)propyloxy]ethoxy]ethyltrimethylammonium chloride] | – | – | – | – | 40 | 292 | No. of survivors/No. of mice tested [5, 10]: 3/5; Life-span prolongation ratio (T/C, %) [5, 10]: 126%; No. of survivors/No. of mice tested ([5]; 0.5 mg/mouse once a day for 4 days): 5/5
CCCCCCCCCCCCCCCCCCOCC(COCCOCCOCC[N+](C)(C)C)OC(=O)CC(C)=O (stereo not shown) [Example 15, 2-[2-[2-[2-(Acetoacetyloxy)-3-(octadecyloxy)propyloxy]ethoxy]ethoxy]ethyltrimethylammonium chloride] | 4/5 | 291 | 100 | 43 | – | – | –
COC(COCCCCCCCCCCCCC1CCCCC1)COCCOCC[N+](C)(C)C (stereo not shown) [Example 24, 2-[2-[3-(12-Cyclohexyl)dodecyloxy-2-methoxypropyloxy]ethoxy]ethyltrimethylammonium chloride] | 3/5 | 262 | 100 | 63 | 0 | 302 | Inhibition ratio (1-T/C) (%) (Sarcoma 180 cells [8]): 78%; Weight of tumor (Sarcoma 180 cells [6]): 0.35 ± 0.15 g; Inhibition ratio (%) (Sarcoma 180 cells [6]): 75%
CC(=O)CC(=O)OC(COCCCCCCCCCCCCC1CCCCC1)COCCOCC[N+](C)(C)C (stereo not shown) [Example 26, 2-[2-[2-Acetoacetyloxy-3-(12-cyclohexyl)dodecyloxypropyloxy]ethoxy]ethyltrimethylammonium chloride] | – | – | – | – | 0 | 295 | Inhibition ratio (1-T/C) (%) (Sarcoma 180 cells [8]): 60%
CCCCCCCCCCCCCCCCCCOCC(COCCOCC[N+](C)(C)C)OCC(C)=O (stereo not shown) [Example 29, 2-[2-[3-(Octadecyloxy)-2-(2-oxopropyloxy)propyloxy]ethoxy]ethyltrimethylammonium chloride] | – | – | – | – | 60 | 220 | –
CCCCCCCCCCCCCCCCCCOCC(COCCOCC[N+](C)(C)C)OC(=S)NC (stereo not shown) [Example 42, 2-[2-[2-(Methylthiocarbamoyloxy)-3-(octadecyloxy)propyloxy]ethoxy]ethyltrimethylammonium chloride] | – | – | – | – | 0 | 340 | –
CNC(=S)OC(COCCCCCCCCCCCCC1CCCCC1)COCCOCC[N+](C)(C)C (stereo not shown) [Example 43, 2-[2-[3-(12-Cyclohexyl)dodecyloxy-2-N-methylthiocarbamoyloxypropyloxy]ethoxy]ethyltrimethylammonium chloride] | – | – | – | – | 20 | 323 | –
CCCCCCCCCCCCCCCCCCOCC(COCCOCC[N+](C)(C)C)OCC1CO1 (stereo not shown) [Example 47, 2-[2-[2-(2,3-Epoxypropyloxy)-3-(octadecyloxy)propyloxy]ethoxy]ethyltrimethylammonium chloride] | – | – | – | – | 20 | 237 | –
COC(COCCCCCCCCCCCC(F)(F)C(F)(F)C(F)(F)C(F)(F)C(F)(F)C(F)(F)C(F)(F)C(F)(F)F)COCCOCC[N+](C)(C)C (stereo not shown) [Example 51, 2-[2-[2-Methoxy-3-(12,12,13,13,14,14,15,15,16,16, 17,17,18,18,19,19,19-heptadecafluorononadecyloxy)propyloxy)ethoxy]ethyltrimethylammonium chloride] | – | – | – | – | – | – | response vs control in vivo at 0.33 mg (Sarcoma 180 cells [7]; Mus musculus): 295%; responders at 0.33 mg (Sarcoma 180 cells [7]; Mus musculus, read-out: No. of survivors/No. of mice tested): 0%
COC(COCCOCC[N+](C)(C)C)COCCC(C)CCCC(C)CCCC(C)CCCC(C)C (stereo not shown) [Example 59, 2-[2-[2-Methoxy-3-(3,7,11,15-tetramethylhexadecyloxy)propyloxy]ethoxy]ethyltrimethylammonium chloride] | – | – | – | – | 0 | 224 | –
C[N+](C)(C)CCOCCOCC(COCCCCCCCCCCCCC1CCCCC1)OCC(=O)[O-] (stereo not shown) [Example 66, 3-(12-Cyclohexyldodecyloxy)methyl-10-trimethylammonio-2,5,8-trioxadecane carboxylate] | – | – | – | – | 0 | 235 | –
lysolecithin | – | – | – | – | – | – | macrophage activation (macrophages): cannot activate macrophages

Source: patent US4889953A, “Glycerol derivatives, their production and use” (Takeda Chemical Industries, Ltd., priority 1986, dated 1989)
